Experiments:
[1] = Agonist activity at STING in human THP1 cells assessed as stimulation of IRF3 pathway measured after 20 hrs by luciferase reporter gene assay
[2] = biological target: T1, Interferon regulatory factor 3 (Homo sapiens, UniProt Q14653); assay: Induction of IRF3 pathway in STING knockout human THP1 cells measured after 20 hrs by luciferase reporter gene assay
T1 sequence (Q14653 whole entry): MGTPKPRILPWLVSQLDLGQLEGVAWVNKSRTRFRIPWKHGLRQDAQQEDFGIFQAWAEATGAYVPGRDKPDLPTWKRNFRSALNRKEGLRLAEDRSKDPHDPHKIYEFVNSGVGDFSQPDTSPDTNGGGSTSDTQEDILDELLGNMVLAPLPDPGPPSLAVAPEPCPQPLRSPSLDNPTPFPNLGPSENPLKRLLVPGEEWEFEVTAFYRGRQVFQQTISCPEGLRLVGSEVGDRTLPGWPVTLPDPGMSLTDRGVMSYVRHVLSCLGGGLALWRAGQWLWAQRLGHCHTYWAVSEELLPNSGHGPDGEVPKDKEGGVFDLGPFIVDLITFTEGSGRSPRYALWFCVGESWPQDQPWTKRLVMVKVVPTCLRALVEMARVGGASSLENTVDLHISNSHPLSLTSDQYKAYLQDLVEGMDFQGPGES

| Compound | EC50 [1] [µM] | EC50 [2] [µM] |
| --- | --- | --- |
| COc1cc(C(N)=O)cc2nc(NC(=O)c3cccnn3)n(CCCNC(=O)OCc3ccccc3)c12 | – | > 100 |
| COc1cc(C(N)=O)cc2nc(NC(=O)c3ccccn3)n(CCCNC(=O)OCc3ccccc3)c12 | – | > 100 |
| CCCn1c(NC(=O)c2ccnn2CC)nc2cc(C(N)=O)cc(OC)c21 | > 100 | > 100 |
| COc1cc(C(N)=O)cc2nc(NC(=O)c3cccn3C)n(CCCNC(=O)OCc3ccccc3)c12 | > 100 | > 100 |
| CCCn1c(NC(=O)c2ccc3ccccc3n2)nc2cc(C(N)=O)cc(OC)c21 | > 100 | > 100 |
| COc1cc(C(N)=O)cc2nc(NC(=O)c3cccnn3)n(CCCCNC(=O)OC(C)(C)C)c12 | – | > 100 |
| CCn1nc(C)cc1C(=O)Nc1nc2cc(C(N)=O)cc(OCCCN3CCOCC3)c2n1CCCNC(=O)OCc1ccccc1 | – | > 100 |
| NC(=O)c1cc(OCCCN2CCOCC2)c2c(c1)nc(NC(=O)c1ccccn1)n2CCCNC(=O)OCc1ccccc1 | > 100 | > 100 |
| CCCn1c(NC(=O)c2cccnn2)nc2cc(C(N)=O)cc(OC)c21 | > 100 | > 100 |
| CCn1nc(C)cc1C(=O)Nc1nc2cc(C(N)=O)cc(OC)c2n1CCCNC(=O)OC(C)(C)C | – | > 100 |
| CCCn1c(NC(=O)c2cc(C)nn2CC)nc2cccc(OC)c21 | > 100 | > 100 |
| COc1cc(C(N)=O)cc2nc(NC(=O)c3ccccn3)n(CCCCNC(=O)OC(C)(C)C)c12 | – | > 100 |
| CCCn1c(NC(=O)c2nccc3ccccc23)nc2cc(C(N)=O)cc(OC)c21 | > 100 | > 100 |
| COc1cc(C(N)=O)cc2nc(NC(=O)c3ccnn3C)n(CCCNC(=O)OCc3ccccc3)c12 | > 100 | > 100 |
| CCn1nc(C)cc1C(=O)Nc1nc2cc(C(N)=O)cc(OC)c2n1CCCNC(=O)OCc1ccccc1 | 0.872 | > 100 |
| COCCCOc1cc(C(N)=O)cc2nc(NC(=O)c3ccccn3)n(CCCNC(=O)OCc3ccccc3)c12 | – | > 100 |
| COc1cc(C(N)=O)cc2nc(NC(=O)C3CCN(C)CC3)n(CCCNC(=O)OCc3ccccc3)c12 | > 100 | > 100 |
| CCn1nc(C)cc1C(=O)Nc1nc2cc(C(=O)OC)cc(OC)c2n1CCCNC(=O)OCc1ccccc1 | 20.7 | 27.6 |
| CCCn1c(NC(=O)c2cc(C)nn2CC)nc2cc(C(=O)OC)cc(OC)c21 | > 100 | > 100 |
| CCn1nc(C)cc1C(=O)Nc1nc2cc(C(N)=O)cc(OC)c2n1CCCNC(=O)CCc1cccnc1 | 39.5 | > 100 |
| CCn1nc(C)cc1C(=O)Nc1nc2cc(C(=O)OC)cnc2n1CCCNC(=O)OC(C)(C)C | > 100 | > 100 |
| CCn1nc(C)cc1C(=O)Nc1nc2cc(C(N)=O)cc(OC)c2n1CCCN | > 100 | > 100 |
| COc1cc(C(N)=O)cc2nc(NC(=O)c3cncn3C)n(CCCNC(=O)OCc3ccccc3)c12 | > 100 | > 100 |
| CCn1nc(C)cc1C(=O)Nc1nc2cc(C(N)=O)cc(OC)c2n1CCCNC(=O)CCC(=O)O | > 100 | > 100 |
| CCn1nc(C)cc1C(=O)Nc1nc2cc(C(N)=O)cc(OC)c2n1CCCNC(=O)CCC(=O)OC | > 100 | > 100 |
| CCn1nc(C)cc1C(=O)Nc1nc2cc(C(N)=O)cc(OC)c2n1CCCNC(=O)c1ccccc1 | > 100 | > 100 |

Now from value to compound:

| EC50 [1] [µM] | EC50 [2] [µM] | Compound |
| --- | --- | --- |
| > 100 | > 100 | CCn1nc(C)cc1C(=O)Nc1nc2cc(C(N)=O)cnc2n1CCCNC(=O)OC(C)(C)C |
| > 100 | > 100 | CCn1nccc1C(=O)Nc1nc2cc(C(N)=O)cc(OC)c2n1CCCNC(=O)OCc1ccccc1 |
| > 100 | > 100 | COc1cc(C(N)=O)cc2nc(NC(=O)CCc3ccccc3)n(CCCNC(=O)OCc3ccccc3)c12 |
| > 100 | > 100 | COc1cc(C(N)=O)cc2nc(NC(=O)C3CCCN3C)n(CCCNC(=O)OCc3ccccc3)c12 (centres undefined) |
| > 100 | > 100 | NC(=O)c1cc(OCCCN2CCOCC2)c2c(c1)nc(NC(=O)c1cccnn1)n2CCCNC(=O)OCc1ccccc1 |
| > 100 | > 100 | CCCn1c(NC(=O)c2cncn2C)nc2cc(C(N)=O)cc(OC)c21 |
| > 100 | > 100 | COc1cc(C(N)=O)cc2nc(NC(=O)c3nccc4ccccc34)n(CCCNC(=O)OCc3ccccc3)c12 |
| > 100 | > 100 | CCn1nc(C)cc1C(=O)Nc1nc2cc(C(N)=O)cc(OC)c2n1CCCNC(=O)CCc1cc(OC)c(OC)c(OC)c1 |
| > 100 | > 100 | CCCn1c(NC(=O)c2cc3ccccc3n2C)nc2cc(C(N)=O)cc(OC)c21 |
| 27.5 | > 100 | CCn1nc(C)cc1C(=O)Nc1nc2cc(C(N)=O)cc(OC)c2n1CCCNC(=O)C(C)(C)C |
| > 100 | > 100 | CCCn1c(NC(=O)CCc2ccccc2)nc2cc(C(N)=O)cc(OC)c21 |
| > 100 | > 100 | CCn1nc(C)cc1C(=O)Nc1nc2cccc(OC)c2n1CCCNC(=O)OCc1ccccc1 |
| > 100 | > 100 | CCn1nc(C)cc1C(=O)Nc1nc2cc(C(=O)O)cnc2n1CCCNC(=O)OC(C)(C)C |
| – | > 100 | CCCn1c(NC(=O)c2cc(C)nn2CC)nc2cc(C(N)=O)ccc21 |
| > 100 | > 100 | CCCn1c(NC(=O)c2ccccn2)nc2cc(C(N)=O)cc(OC)c21 |
| > 100 | > 100 | COc1cc(C(N)=O)cc2nc(NC(=O)c3ccc4ccccc4n3)n(CCCNC(=O)OCc3ccccc3)c12 |
| > 100 | > 100 | COc1cc(C(N)=O)cc2nc(NC(=O)c3cc4ccccc4n3C)n(CCCNC(=O)OCc3ccccc3)c12 |
| > 100 | > 100 | COCCCOc1cc(C(N)=O)cc2nc(NC(=O)c3cccnn3)n(CCCNC(=O)OCc3ccccc3)c12 |
| > 100 | > 100 | CCn1nc(C)cc1C(=O)Nc1nc2cc(C(N)=O)ccc2n1CCCNC(=O)OCc1ccccc1 |
| > 100 | > 100 | CCCn1c(NC(=O)c2ccnn2C)nc2cc(C(N)=O)cc(OC)c21 |
